In US20040137022A1, “Manganese compositions for treating skin vascular tissue and combating skin pallor” (SOCIETE L'OREAL S.A., priority 2000, published 2004):

System: endothelium-free isolated blood vessels
Details: concentration 10^−6 M; blood vessel rings contracted with noradrenalin 3×10^−7 M; 37° C.
Experimental: Activity of manganese (manganese gluconate, manganese chloride and manganese carbonate) in an ex vivo model of endothelium-free isolated blood vessels:
Blood vessel rings (or sections) were maintained in a 20 ml tank filled with survival fluid (Krebs Henseleit liquid) maintained at a temperature of 37° C. and oxygenated with a mixture of 95% oxygen and 5% CO2.
The variations in the tension of the blood vessel were then recorded with an initial preloading of several […].
The rings were contracted with noradrenalin at a concentration of 3×10^−7 M. On each preparation, the effect of the test products was evaluated at increasing and cumulative concentrations of from 3×10^−8 M to 10^−5 M.

Substance: manganese carbonate [MnCO3]
- % of relaxation: 100%

Substance: manganese chloride [MnCl2]
- % of relaxation: 100%

Substance: manganese gluconate
- % of relaxation: 100%
